Broadly, the Ki is the equilibrium dissociation constant of an inhibitor or competing ligand from its target. Low readings indicate a stronger hold on the target, high ones a looser hold on the target.

The target of one assay is T1, Caspase-1 (Homo sapiens, UniProt P29466).
T1 sequence (P29466 whole entry): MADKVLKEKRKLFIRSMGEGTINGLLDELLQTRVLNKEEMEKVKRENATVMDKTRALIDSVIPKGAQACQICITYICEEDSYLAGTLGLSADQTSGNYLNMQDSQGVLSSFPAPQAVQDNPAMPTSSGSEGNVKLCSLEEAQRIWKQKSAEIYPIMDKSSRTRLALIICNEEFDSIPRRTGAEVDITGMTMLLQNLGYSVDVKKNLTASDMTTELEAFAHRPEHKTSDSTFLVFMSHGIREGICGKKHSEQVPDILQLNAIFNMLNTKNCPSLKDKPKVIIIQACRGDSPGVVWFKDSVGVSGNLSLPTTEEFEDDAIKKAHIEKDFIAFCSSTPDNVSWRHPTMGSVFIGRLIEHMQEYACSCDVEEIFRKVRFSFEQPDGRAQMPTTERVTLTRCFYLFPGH
Description: Inhibition of human caspase 1.

The target of the next assay is T2, Caspase-6 (Homo sapiens, UniProt P55212).
T2 sequence (P55212 whole entry): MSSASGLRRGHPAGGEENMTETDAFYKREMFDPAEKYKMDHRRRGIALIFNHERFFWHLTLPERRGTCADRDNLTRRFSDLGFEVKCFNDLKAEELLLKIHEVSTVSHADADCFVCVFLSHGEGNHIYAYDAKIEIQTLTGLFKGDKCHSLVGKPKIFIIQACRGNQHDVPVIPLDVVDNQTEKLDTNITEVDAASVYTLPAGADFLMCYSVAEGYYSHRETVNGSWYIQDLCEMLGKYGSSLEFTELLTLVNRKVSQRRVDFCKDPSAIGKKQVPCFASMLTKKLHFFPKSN
Description: Inhibition of human caspase 6.

The next assay has as its target T3, Caspase-7 (Homo sapiens, UniProt P55210).
T3 sequence (P55210 whole entry): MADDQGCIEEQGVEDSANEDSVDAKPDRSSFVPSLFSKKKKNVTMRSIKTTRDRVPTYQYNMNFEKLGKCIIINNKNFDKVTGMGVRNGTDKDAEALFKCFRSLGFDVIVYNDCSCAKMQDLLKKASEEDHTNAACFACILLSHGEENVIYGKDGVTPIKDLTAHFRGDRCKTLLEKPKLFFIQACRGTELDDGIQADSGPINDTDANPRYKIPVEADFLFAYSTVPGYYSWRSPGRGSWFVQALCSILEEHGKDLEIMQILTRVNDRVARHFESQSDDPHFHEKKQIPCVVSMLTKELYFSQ
Put plainly: Inhibition of human caspase 7.

A further assay deals with T4, Caspase-2 (Homo sapiens, UniProt P42575).
T4 sequence (P42575 whole entry): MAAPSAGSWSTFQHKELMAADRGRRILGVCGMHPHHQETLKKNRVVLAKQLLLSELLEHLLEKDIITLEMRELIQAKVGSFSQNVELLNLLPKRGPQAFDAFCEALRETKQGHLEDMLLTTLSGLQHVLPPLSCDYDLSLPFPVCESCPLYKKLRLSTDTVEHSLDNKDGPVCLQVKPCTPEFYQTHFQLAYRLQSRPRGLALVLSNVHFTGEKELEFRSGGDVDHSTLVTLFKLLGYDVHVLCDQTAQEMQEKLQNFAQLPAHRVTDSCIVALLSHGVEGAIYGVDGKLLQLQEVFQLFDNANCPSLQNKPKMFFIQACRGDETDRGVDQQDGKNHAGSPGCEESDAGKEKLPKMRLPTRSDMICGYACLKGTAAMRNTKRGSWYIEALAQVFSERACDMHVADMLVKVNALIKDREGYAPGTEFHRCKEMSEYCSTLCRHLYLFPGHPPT
Description: Inhibition of human caspase 2.

Another assay has as its target Caspase-8 (Homo sapiens, UniProt Q14790). Description: Inhibition of human caspase 8.
A further assay has as its target T5, Caspase-3 (Homo sapiens, UniProt P42574).
T5 sequence (P42574 whole entry): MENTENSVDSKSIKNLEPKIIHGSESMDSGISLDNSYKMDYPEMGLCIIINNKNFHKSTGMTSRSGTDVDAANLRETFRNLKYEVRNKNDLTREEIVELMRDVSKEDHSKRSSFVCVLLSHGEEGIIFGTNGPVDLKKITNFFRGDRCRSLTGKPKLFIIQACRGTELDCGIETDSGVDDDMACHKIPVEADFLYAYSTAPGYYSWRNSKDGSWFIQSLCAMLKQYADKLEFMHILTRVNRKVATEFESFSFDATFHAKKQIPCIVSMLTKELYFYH
Description: Inhibition of human caspase 3.

Chain of Caspase-8 (Q14790 217-374 limits assumed): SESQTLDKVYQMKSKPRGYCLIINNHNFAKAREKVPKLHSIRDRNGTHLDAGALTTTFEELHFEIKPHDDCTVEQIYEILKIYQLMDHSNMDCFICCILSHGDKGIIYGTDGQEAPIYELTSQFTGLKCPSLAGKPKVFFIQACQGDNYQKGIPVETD
Chain of Caspase-8 (Q14790 385-479 limits assumed): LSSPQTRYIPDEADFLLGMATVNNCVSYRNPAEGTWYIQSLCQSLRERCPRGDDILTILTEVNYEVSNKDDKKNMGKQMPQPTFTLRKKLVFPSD

In the case of `Cc1cccc(C)c1C(=O)OCC(=O)[C@H](CC(=O)O)NC(=O)[C@H](CCCCNC(=O)CCCCCNC(=O)CCCCC1SC[C@@H]2NC(=O)N[C@H]12)NC(=O)[C@H](CCC(=O)O)NC(=O)OCc1ccccc1` (stereo partly specified), the Ki was 6.3 nM on Caspase-1; 550000 nM on Caspase-6; 1200 nM at Caspase-7; 29000 nM at Caspase-2; 540 nM at Caspase-8; 840 nM at Caspase-3.

Values taken from ChEMBL document CHEMBL1138864, “Synthesis of novel caspase inhibitors for characterization of the active caspase proteome in vitro and in vivo” (J Med Chem, 2006).
